The record followed here is patent publication US20090076062A1, “Organic Compounds” (priority 2007, published 2009).

Structures are written as SMILES.

The test addresses T1, Recombinant human renin (Homo sapiens, UniProt P00797).
T1 construct: made in house; host or cells: Chinese Hamster Ovary cells
T1 sequence (P00797 67-406): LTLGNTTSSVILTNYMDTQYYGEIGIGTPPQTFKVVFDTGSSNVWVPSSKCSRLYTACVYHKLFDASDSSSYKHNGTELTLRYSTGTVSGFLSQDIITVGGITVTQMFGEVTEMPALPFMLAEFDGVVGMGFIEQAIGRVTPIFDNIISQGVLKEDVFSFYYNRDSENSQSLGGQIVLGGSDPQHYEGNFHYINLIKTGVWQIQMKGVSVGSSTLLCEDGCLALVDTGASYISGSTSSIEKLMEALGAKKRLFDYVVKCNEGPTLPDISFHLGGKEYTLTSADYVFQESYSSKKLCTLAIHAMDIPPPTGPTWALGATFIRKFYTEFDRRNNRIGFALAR
Nature of the test: Renin inhibitory activity in vitro, hu-renin FRET assay. Format: biochemical. The procedure: Recombinant human renin (expressed in Chinese Hamster Ovary cells and purified using standard methods) at 4 nM concentration is incubated with test compound at various concentrations for 1 h at RT in 0.1 M Tris-HCl buffer, pH 7.4, containing 0.05 M NaCl, 0.5 mM EDTA and 0.05% CHAPS. Synthetic peptide substrate Arg-Glu(EDANS)-Ile-His-Pro-Phe-His-Leu-Val-Ile_His_Thr-Lys(DABCYL)-Arg9 is added to a final concentration of 2 μM and increase in fluorescence is recorded at an excitation wave-length of 340 nm and at an emission wave-length of 485 nm in a microplate spectro-fluorimeter. IC50 values are calculated from percentage of inhibition of renin activity as a function of test compound concentration (Fluorescence Resonance Energy Transfer, FRET, assay). Recombinant human renin (expressed in Chinese Hamster Ovary cells and purified using standard methods) at 1 nM concentration is incubated with test compound at various concentrations for 1.5 h at 37° C. in 0.1 M Tris/HCl pH 7.4 containing 0.05 M NaCl, 0.5 mM EDTA and 0.025% (w/v) CHAPS. Synthetic peptide substrate Ac-Ile-His-Pro-Phe-His-Leu-Val-Ile-His-Asn-Lys-[DY-505-X5] is added to a final concentration of 5 μM. The enzyme reaction is stopped by adding 6 μL of 1.0% TFA. The product of the reaction is separated by HPLC and quantified by spectrophotometric measurement at […] wave-length. IC50 values are calculated from percentage of inhibition of renin activity as a function of test compound concentration.
Renin inhibitory activity was assessed in vitro by FRET assay (as above described). Results for representative compounds of formula I are: […]

Usually IC50 stands for the concentration that inhibits the measured activity by half. Take `COCCCCc1cc(C[C@@H](C[C@H](N)[C@@H](O)C[C@H](C(=O)NC2CCOCC2)C(C)C)C(C)C)ccc1OC` [Example 36, (2S,4S,5S,7S)-5-Amino-4-hydroxy-2-isopropyl-7-[4-methoxy-3-(4-methoxy-butyl)-benzyl]-8-methyl-nonanoic acid (tetrahydro-pyran-4-yl)-amide]: the IC50 is 0.3 nM.
